Results as given in article PMC6950563, “Epinecidin-1 Protects against Methicillin Resistant Staphylococcus aureus Infection and Sepsis in Pyemia Pigs” (Marine Drugs, 2019).
Where two headings read alike, the source gives them in different places. Residues, ends and D or L forms follow the SMILES beside them.

Tests used:
[1] = in vivo; settings: pig, iv
Description: (§1) Approximately 3 mL of blood was taken from the carotid artery at 0, 10, 20, 30, and 60 minutes and at 60 minutes intervals thereafter until 600 minutes had passed.

[2] = Acute intravenous toxicity in pigs; type: in vivo, pig
Description: Acute intravenous (i.v.) toxicity was analyzed as described previously. Acute i.v. toxicity was assessed after administration of 25, 50, 100, and 200 mg/kg body weight of Epi-1 in pigs; 1 to 5 animals per group. After injection, the animals were kept under visual observation up to 1 h, and the rate of mortality and clinical symptoms were recorded every 2 h for a total of 24 h. For blood analysis, 5 mL of heparin-stabilized blood was taken and stored at 4 °C. Serum was separated from the blood sample using a serum separator gel tube (catalogue number 367955, Becton-Dickinson, Franklin Park, NJ, USA), according to the vendor’s instructions. Serum GOT, GPT, UA, BUN, and CRT activity levels were determined using an automated analyzer (FUJI DRI-CHEM 4000i, Fujifilm, Tokyo, Japan) according to the manufacturers’ instructions. Standard controls were analyzed before each determination.

[3] = tested on: MRSA; type: cell-based, Staphylococcus aureus; settings: for pathogens killed (time-kill): 4 h
Description: At 4, 8, 12, and 24 h post-treatment, the number of viable bacteria (CFU) was determined for the time-kill experiment.

[4] = pigs
Description: as §1

[5] = 25% human serum in RPMI, 37 °C, LC-MS/MS
Description: Human serum (catalogue number BP2657100, Fisher Scientific, Millersburg, PA, USA) was suspended in RPMI medium up to 25%, and 0.990 mL was transferred to a 1.5 mL micro centrifuge tube. The serum-containing tube was incubated at 37 °C for 15 min, and 10 mg/mL Epi-1 was added to obtain a final peptide concentration of 100 μg/mL. At constant time intervals 100 μL of the experimental mix was taken out, and serum protein was precipitated in two volumes of 95% ethanol solution. The cloudy precipitate was cooled at 4 °C for 15 min, and then the serum was precipitated and pelleted by centrifugation at 18,000 × g for 2 min. The peptide stability in the supernatant was then analyzed by a liquid chromatography tandem mass spectrometer (LC-MS/MS) (Mission Biotech, Taipei, Taiwan).

[6] = tested on: MRSA; assay: Histopathology (H&E) of major organs of infected pigs; type: in vivo, pig; settings: vancomycin 0.5 mg/kg, day 7
Description: Tissue samples from the heart valve, left diaphragmatic lobe of the lung, left lateral lobe of the liver, and left kidney were collected and fixed in PBS buffer containing 4% formaldehyde for 24 h. Fixed samples were immersed in different concentrations of xylene and ethanol before embedding in paraffin. The processed samples were sectioned at 8–10 µm using a microtome. The sections were stained for histological analysis with hematoxylin and eosin (H&E) after rehydration.

[7] = tested on: MRSA; assay: Survival of MRSA-infected pyemia pigs; type: in vivo, pig
Description: Administration of bacteria or mock treatment followed by flushing with 5 mL of sterile isotonic saline was performed by i.v. through a 22G catheter inserted in the right femoral vein. The catheter was removed after administration. Another 22G catheter was then inserted into the left femoral vein and secured with stitches. The catheter was flushed with 10 mL sterile isotonic saline solution, and then with 2 mL of 100 I.U./mL sterile heparin solution (catalogue number H3149, Sigma Chemical Co., St. Louis, MO, USA) for blood sampling. During blood sampling, the initial 5 mL of blood was discarded to avoid the heparin carryover. Five pigs were inoculated with the MRSA strain (1 × 10^9 CFU/kg) only. […] Samples were subsequently collected for histopathology, microbial studies, and bacterial count.

[8] = pig, Epi-1 200 mg/kg single i.v., n=1, died in one hour after injection

CC[C@H](C)[C@H](NC(=O)[C@H](CCSC)NC(=O)[C@H](CCCCN)NC(=O)CNC(=O)[C@H](C)NC(=O)[C@H](Cc1c[nH]cn1)NC(=O)[C@H](Cc1ccccc1)NC(=O)[C@H](CC(C)C)NC(=O)CNC(=O)[C@H](CCCCN)NC(=O)[C@@H](NC(=O)[C@@H](NC(=O)[C@H](Cc1c[nH]cn1)NC(=O)[C@H](Cc1ccccc1)NC(=O)[C@@H](NC(=O)[C@H](Cc1ccccc1)NC(=O)CN)[C@@H](C)CC)[C@@H](C)CC)[C@@H](C)CC)C(=O)N[C@@H](Cc1c[nH]cn1)C(=O)NCC(=O)N[C@@H](CC(C)C)C(=O)N[C@H](C(N)=O)C(C)C [Epi-1, epinecidin-1] (H-GFIFHIIKGLFHAGKMIHGLV-NH2)
half-life ([1]; plasma): ~4 h | level at 5 h ([1]; serum, 0.5 mg/kg): 2920 ± 957 ng/mL | level at 10 min ([1]; serum, 1.5 mg/kg): 9061 ± 60 ng/mL | level at 5 h ([1]; serum, 1.5 mg/kg): 3780 ± 219 ng/mL | level at 5 h ([1]; serum, 2.5 mg/kg): 8880 ± 205 ng/mL | BUN [2, 8]: Died | CRE [2, 8]: Died | GOT [2, 8]: Died | GPT [2, 8]: Died | Serum UA [2, 8]: Died | doses that did not cause abnormal behavior, mortality, or activity ([2]; single i.v. injection, piglets starved 12 h, observed every 2 h up to 24 h): up to 100 mg/kg | pathogens killed (time-kill) [3]; 1: 90% | pathogens killed (time-kill) [3]; 2: 90% | time post i.v. injection up to which Epi-1 is stable in serum ([4]; i.v.): up to 4 h | time post-injection up to which Epi-1 was detected in serum ([4]; i.v.): up to 240 min | concentration of free Epi-1 in serum, initial ([5]; 15 min pre-incubation, nominal 100 µg/mL, ethanol precipitation, start, mean ± SEM, three independent experiments): 7360 ± 300 ng/mL | time up to which the free Epi-1 concentration did not change (after the initial 30 min) [5]: up to 7 h | time for which Epi-1 was stable in human serum in vitro ([5]; Figure 2C): up to 400 min | concentration of free Epi-1 in serum after the initial 30 min ([5]; nominal 100 µg/mL, ethanol precipitation, 30 min, mean ± SEM, three independent experiments): 5940 ± 120 ng/mL

CN[C@H](CC(C)C)C(=O)N[C@H]1C(=O)N[C@@H](CC(N)=O)C(=O)N[C@H]2C(=O)N[C@H]3C(=O)N[C@H](C(=O)N[C@H](C(=O)O)c4cc(O)cc(O)c4-c4cc3ccc4O)[C@H](O)c3ccc(c(Cl)c3)Oc3cc2cc(c3O[C@@H]2O[C@H](CO)[C@@H](O)[C@H](O)[C@H]2O[C@H]2C[C@](C)(N)[C@H](O)[C@H](C)O2)Oc2ccc(cc2Cl)[C@H]1O [vancomycin]
Heart: infective endocarditis (animals with clinical signs/total examined) [6]: 0/5 | Kidney: cystic tubules, cortical (animals with clinical signs/total examined) [6]: 0/5 | Liver: liver abscess (animals with clinical signs/total examined) [6]: 1/5 | Lung: inflammation, pulmonary edema (animals with clinical signs/total examined) [6]: 2/5 | survival against MRSA infection ([7]; MRSA 1 × 10^9 CFU/kg i.v., vancomycin 0.5 mg/kg i.v. 30 min post-infection, 7 days): 80% | Survival Rate (Day PI) ([7]; MRSA 10^9 CFU/kg i.v., vancomycin 0.5 mg/kg, n=5): 80 | killing of MRSA ([3]; at 24 h, about 1 × 10^6 cells, Figure 1B): 95% | course of the serum concentration of vancomycin ([4]; vancomycin 0.5 mg/kg i.v., up to 360 min, LC-MS-MS, Supplementary Figure S1): very stable
